Experimental data as given in US5004758A, “Water soluble camptothecin analogs useful for inhibiting the growth of animal tumor cells” (priority 1988, dated 1991).
Values joined by “and” are separate entries in the source; they are usually repeats but may differ in a detail not shown here. Equal entries are not always repeated. Structures can show the parent of a compound that is named as a salt. Where two headings read alike, the source gives them in different places.

Assays:
sc ADJ-PC6 plasmacytoma = experiment: sc-implanted ADJ-PC6 plasmacytoma in mice; assay type: in vivo, mouse; details: for Mice without Palpable Tumors: sc ADJ-PC6, B/ip
Protocol: Inhibition of tumor growth (TGI) is based on mean tumor volume of groups of 7 or 8 mice relative to untreated controls. Tumors were measured between Days 12 and 19 (except Day 24 for Colon 51 and Day 31 for Colon 38).
Tumors used in these studies are maintained by serial transplantation in syngeneic strains of mice C57BL/6 for Lewis lung carcinoma, B16 melanoma and its F10 subline, M5076 sarcoma and colon adenocarcinoma 38; BALB/c for colon carcinoma 26, ADJ-PC6 plasmacytoma Madison lung carcinoma and colon adenocarcinoma 51, C3H for mammary adenocarcinoma 16/c. With the exception of the M5076 sarcoma, which is maintained as a i.p ascites cell suspension, all of the tumors were serially transplanted as s.c. solid tumors.
For therapeutic trials, tumors were aseptically removed from donor mice and prepared for implantation s.c. into test animals. The test animals for Lewis lung carcinoma, B16 melanoma and its F10 subline, M5076 sarcoma and colon adenocarcinoma 38 are syngeneic female F1 hybrid B6D2F mice (C57B1/6×DBA/2). ADJ-PC6 plasmacytoma and colon carcinoma 26 are evaluated in female BALB/c mice. Madison lung carcinoma and colon adenocarcinoma 51 are evaluated in syngeneic female F1 hybrid CD2F1 mice (BALB/c×DBA/2). Mammary adenocarcinoma 16/c is evaluated in female C3H mice. The inoculum varies with the tumor. Colon adenocarcinomas 38 is implanted as 2 mm fragments by trochar. M5076 sarcoma and ADJ-PC6 plasmacytoma are implanted as cell suspensions at 5×10^6 and 2×10^6 cells per mouse, respectively. Colon carcinoma 26, colon adenocarcinoma 51, Lewis lung carcinoma, Madison lung carcinoma and B16 melanoma and its F10 subline are implanted as tumor breis prepared as described above in a volume of 0.5 ml. The brei concentration was 10 percent (w:v) except for colon carcinoma 26 for which the brei concentration was 5 percent (w:v). After tumor inoculation, mice are randomized to treatment groups of 7 or 8 mice. In each experiment, there are three groups of untreated control mice.
Drugs are dissolved or suspended in appropriate aqueous vehicles and given by a variety of routes of administration and treatment schedules over a range of dosage levels. Animals are housed in shoebox cages and are monitored daily for mortality. […] Time for tumor measurement is dependent on the different rates of tumor growth of the different tumors: the most rapidly growing tumors such as the Lewis and Madison lung tumors, B16 melanoma and its F10 subline were measured between Days 12 and 16. The slower growing tumors were measured at later time points--17 days for M5076 sarcoma, 16 or 19 days for mammary adenocarcinoma 16/c, 19 days for ADJ-PC6 plasmacytoma and colon carcinoma 26, 24 days for colon adenocarcinoma 51, and 31 days for colon adenocarcinoma 38.

in vivo = details: mouse, ip
Protocol: (§3) Increase in lifespan (ILS) is based on median survival time of groups of 6 mice. Net tumor cell kill (NCK) is calculated from median survival time by standard methods, since survival time is a linear function of the log tumor cell burden.
Animals were implanted ip with 10^6 cells. Increase in lifespan (ILS) is based on median survival time of groups of 6 mice relative to untreated controls. Long-term survivors were tumor-free on Day 45.
(§4) Tumors used in these studies--P388 leukemia and its doxorbicin--and mitoxanrone-resistant sublines, L1210 leukemia, B16 melanoma, B16 melanoma/F10 subline, M5076 sarcoma and colon carcinoma 26--are maintained by serial transplantation in syngeneic strains of mice. For the leukemias, these tumors are maintained in DBA/2 mice. The M5076 sarcoma, the B16 melanoma and its F10 subline are maintained in C57B1/6 mice and the colon sarcinoma 26 is maintained in BALB/c mice. The leukemias and the M5076 sarcoma are serially transplanted i.p. as ascites cell suspensions while the B16 melanoma lines and the colon carcinoma 26 are serially transplanted as s.c. solid tumors.
(§5) For therapeutic trials, tumors are aseptically removed from donor mice and prepared as suspensions for implantation ip into test animals. The test animals for the colon carcinoma 26 are female BALB/c mice (20-25 gm). The test animals for the other tumor models are syngeneic female F1 hybrid B6D2F1 mice (C57B1/6 x DBA/2). The inoculum level varies with the type of tumor: P388 leukemia is inoculated at 10^6 cells per mouse, L1210 leukemia at 10^5 or 10^6 cells per mouse, M5076 sarcoma at 5×10^6 cells per mouse. For implantation of the B16 melanoma lines and the colon carcinoma 26, s.c. tumors from donor mice are minced and homogenized in loose fitting teflon glass homogenizer to give a tumor brei. The inoculum levels are 0.5 ml of a 10 percent (w:v) brei of the B16 melanoma lines and 0.5 ml of a 5 percent (w:v) brei of colon carcinoma 26. After tumor inoculation, mice randomized to treatment groups comprised of 6-8 mice each. In each experiment, there are three groups of untreated control mice. Drugs are dissolved or suspended in appropriate aqueous vehicles and given by a variety of routes and schedules of administration over a range of dose levels. Animals are housed in shoebox cages and are monitored daily for mortality for 30 (L1210), 45 (P388) or 60 (B16, M5076, colon 26) days.

DLD-1 = experiment: Cytotoxicity to tumor cells in culture; assay type: cell-based; details: Homo sapiens
Protocol: (§1) The cell lines are used and maintained as monolayer cultures in Minimal Essential Media (Grand Island Biological Co., Grand Island, N.Y.) supplemented with 10% fetal calf serum in a 5% CO2 humidified incubator at 37° C. Various concentrations of a Formula (I) compound under sterile conditions were allowed to react for 2 hours followed by aspiration of medium or were exposed continuously. Plates are incubated for 7 days at 37° C. in a CO2 incubator. Medium was aspirated and cells were fixed and stained with ethanol and Geisma stain. The surviving cell population was determined by scanning the plates with an image analyzer. The percent inhibition of proliferation was determined relative to cells incubated in the absence of drug and the 50 percent inhibitory concentration (IC50) was determined by interpolation.

WIDR = experiment: Cytotoxicity to tumor cells in culture; assay type: cell-based; details: Homo sapiens
Protocol: as §1

SW-620 = experiment: Cytotoxicity to tumor cells in culture; assay type: cell-based; details: Homo sapiens
Protocol: as §1

B16 Melanoma = experiment: Cytotoxicity to tumor cells in culture; assay type: cell-based; details: Mus musculus, continuous exposure
Protocol: as §1

SKCO-1 = experiment: Cytotoxicity to tumor cells in culture; assay type: cell-based; details: Homo sapiens
Protocol: as §1

CACO-2 = experiment: Cytotoxicity to tumor cells in culture; assay type: cell-based; details: Homo sapiens
Protocol: as §1

K12/Tr Colon Carcinoma = experiment: Cytotoxicity to tumor cells in culture; assay type: cell-based; details: K12/Tr rat colon carcinoma
Protocol: as §1

L1210 Leukemia = experiment: Cytotoxicity to tumor cells in culture; assay type: cell-based; details: Mus musculus, 2 hr exposure
Protocol: as §1

HT-29 = experiment: Cytotoxicity to tumor cells in culture; assay type: cell-based; details: Homo sapiens
Protocol: as §1

SW-948 = experiment: Cytotoxicity to tumor cells in culture; assay type: cell-based; details: Homo sapiens
Protocol: as §1

LOVO = experiment: Cytotoxicity to tumor cells in culture; assay type: cell-based; details: Homo sapiens
Protocol: as §1

[1] = test system: ip B16 melanoma/F10 subline; details: mouse, in vivo; for Increase in lifespan (ILS): ip
Text: as §4, §5

ip B16 melanoma = details: mouse, in vivo
Text: as §4, §5

iv L1210 leukemia = details: mouse, in vivo
Text: Animals were inoculated iv with 10^6 cells. Increase in lifespan (ILS) is based on median survival time of groups of 6 mice relative to untreated controls.
The protocols utilized for the evaluation of the antitumor activity of Formula (I) compounds are well established and widely utilized by those skilled in the art of assessing the activity of drugs in preclinical tumor models. These studies generally follow the protocols established by the National Cancer Institute as described by Geran et al., Cancer Chemotherapy Reports, Part 3, Vol. 3, 1-103, 1972.
Tumors used in these studies P388 leukemia, L1210 leukemia and Lewis lung carcinoma--are maintained by serial transplantation in syngeneic strains of mice, DBA/2 for the leukemias and C57B1/6 for Lewis lung carcinoma. The leukemias are serially transplanted i.p. as ascites cell suspensions while the Lewis lung carcinoma is serially transplanted as a s.c. solid tumor.
For therapeutic trials, tumors were aseptically removed from donor mice and prepared as suspensions for implantation into test animals which for each tumor are syngeneic female F1 hybrid B6D2F1 mice (C57B1/6×DBA/2). The inoculum level varies with the type of tumor: P388 leukemia is inoculated at 10^6 cells per mouse, L1210 leukemia at 10^5 or 10^6 cells per mouse, and Lewis lung carcinoma at 0.25 ml of a 10 percent (w:v) brei. […] After tumor inoculation, mice are randomized to treatment groups of 6 to 8 mice each. In each experiment, there are three groups of untreated control mice.
Drugs are dissolved or suspended in appropriate aqueous vehicles and given i.p. or i.v. on various treatment schedules over a range of dosage levels. Animals are housed in shoebox cages and monitored daily for mortality for 30 (L1210), 45 (P388) or 60 (Lewis lung) days.

sc Lewis lung carcinoma = assay type: in vivo, mouse; details: mouse, in vivo
Text: (§2) The inoculum varies with the tumor.

[2] = test system: sc colon adenocarcinoma 51; assay type: in vivo, mouse; details: for Tumor growth inhibition (TGI) / Mice without Palpable Tumors: sc Colon 51
Text: as §2

P388/Mitoxantrone = experiment: ip P388/Mitoxantrone multidrug resistant subline in mice; details: for ILS / NCK (net tumor cell kill): P388/Mitoxantrone, ip, Days 1 and 5
Protocol: as §3
For the leukemias, these tumors are maintained in DBA/2 mice. […] The leukemias and the M5076 sarcoma are serially transplanted i.p. as ascites cell suspensions while the B16 melanoma lines and the colon carcinoma 26 are serially transplanted as s.c. solid tumors.
For therapeutic trials, tumors are aseptically removed from donor mice and prepared as suspensions for implantation ip into test animals. […] The test animals for the other tumor models are syngeneic female F1 hybrid B6D2F1 mice (C57B1/6 x DBA/2). The inoculum level varies with the type of tumor: P388 leukemia is inoculated at 10^6 cells per mouse, L1210 leukemia at 10^5 or 10^6 cells per mouse, M5076 sarcoma at 5×10^6 cells per mouse. […] After tumor inoculation, mice randomized to treatment groups comprised of 6-8 mice each. In each experiment, there are three groups of untreated control mice. Drugs are dissolved or suspended in appropriate aqueous vehicles and given by a variety of routes and schedules of administration over a range of dose levels. Animals are housed in shoebox cages and are monitored daily for mortality for 30 (L1210), 45 (P388) or 60 (B16, M5076, colon 26) days.

[3] = 2 hr exposure, 7-day incubation, read-out: IC50 2 Hr. Exposure
[4] = 168 h, continuous 7-day exposure, read-out: IC50 Continuous Exposure

CC[C@@]1(O)C(=O)OCc2c1cc1n(c2=O)Cc2cc3c(CN(C)C)c(O)ccc3nc2-1 [Compound No. 1S, (20 S) 9-Dimethylaminomethyl-10-hydroxycamptothecin Acetate Salt]
inhibition of tumor growth at four dose levels at or below the maximally tolerated dose (sc ADJ-PC6 plasmacytoma; mouse, in vivo): > 90 | long term tumor-free survivors at each of the top three dose levels (sc ADJ-PC6 plasmacytoma; mouse, in vivo): 1 of 8 | Tumor growth inhibition (TGI) (sc ADJ-PC6 plasmacytoma; mouse, in vivo, 3.2 mg/kg): 93% | Tumor growth inhibition (TGI) (sc ADJ-PC6 plasmacytoma; mouse, in vivo, 5.4 mg/kg): 92% | long-term, tumorfree survivors (sc ADJ-PC6 plasmacytoma; mouse, in vivo, 5.4 mg/kg): 1/8 | Tumor growth inhibition (TGI) (sc ADJ-PC6 plasmacytoma; mouse, in vivo, 9 mg/kg): 100% | long-term, tumorfree survivors (sc ADJ-PC6 plasmacytoma; mouse, in vivo, 9 mg/kg): 1/8 | long-term, tumorfree survivors (sc ADJ-PC6 plasmacytoma; mouse, in vivo, 15 mg/kg): 1/8 | Tumor growth inhibition (TGI) (sc ADJ-PC6 plasmacytoma; mouse, in vivo, 25 mg/kg): toxic | Increase in Lifespan (ILS) or Inhibition of Tumor Growth (TGI) (sc ADJ-PC6 plasmacytoma; mouse, in vivo, sc): 100 % TGI | Mice without Palpable Tumors (sc ADJ-PC6 plasmacytoma; 3.2 mg/kg/injection): 3/8 | Mice without Palpable Tumors (sc ADJ-PC6 plasmacytoma; 5.4 mg/kg/injection): 4/8 | Mice without Palpable Tumors (sc ADJ-PC6 plasmacytoma; 9 mg/kg/injection): 8/8 | Mice without Palpable Tumors (sc ADJ-PC6 plasmacytoma; 15 mg/kg/injection): 7/7 | MTD (in vivo): 15 mg/kg | IC50 (DLD-1; [3]): 0.44 µg/mL | IC50 (DLD-1; [4]): 0.015 µg/mL | IC50 (WIDR; [3]): 2.1 µg/mL | IC50 (WIDR; [4]): 0.025 µg/mL | IC50 (SW-620; [3]): 0.12 µg/mL | IC50 (SW-620; [4]): 0.0065 µg/mL | IC50 (B16 Melanoma): 0.62 µg/mL | IC50 (SKCO-1; SK-CO-1, 2 hr exposure, 7-day incubation, read-out: IC50 2 Hr. Exposure): 0.23 µg/mL | IC50 (SKCO-1; SK-CO-1, 168 h, continuous 7-day exposure, read-out: IC50 Continuous Exposure): 0.0039 µg/mL | IC50 (CACO-2; [3]): 1.7 µg/mL | IC50 (CACO-2; [4]): 0.075 µg/mL | IC50 (K12/Tr Colon Carcinoma; 2 hr exposure, read-out: IC50 2 Hr. Exposure): 3.9 µg/mL | IC50 (K12/Tr Colon Carcinoma; continuous exposure, read-out: IC50 Continuous Exposure): 0.084 µg/mL | IC50 (L1210 Leukemia): 1.4 µg/mL | IC50 (HT-29; [3]): 0.58 µg/mL | IC50 (HT-29; [4]): 0.016 µg/mL | IC50 (SW-948; SW948, 2 hr exposure, 7-day incubation, read-out: IC50 2 Hr. Exposure): 0.26 µg/mL | IC50 (SW-948; SW948, 168 h, continuous 7-day exposure, read-out: IC50 Continuous Exposure): 0.016 µg/mL | IC50 (LOVO; [3]): 0.58 µg/mL | IC50 (LOVO; [4]): 0.0097 µg/mL | increases in lifespan at two lower doses [1]: > 40 | Increase in lifespan (ILS) ([1]; 3.2 mg/kg): 37% | Increase in lifespan (ILS) ([1]; 5.4 mg/kg): 63% | Increase in lifespan (ILS) ([1]; 9 mg/kg): 68% | Increase in lifespan (ILS) ([1]; 25 mg/kg): toxic | ILS (ip B16 melanoma): 130 | Increase in Lifespan (ILS) or Inhibition of Tumor Growth (TGI) (ip B16 melanoma; ip): 152 % ILS | Increase in lifespan (ILS) (ip B16 melanoma; ip, 3.2 mg/kg): 43% | Increase in lifespan (ILS) (ip B16 melanoma; ip, 5.4 mg/kg): 52% | Increase in lifespan (ILS) (ip B16 melanoma; ip, 25 mg/kg): toxic | ILS (iv L1210 leukemia; 3.2 mg/kg): 50% | Increase in lifespan (ILS) (iv L1210 leukemia; 3.2 mg/kg): 57% | ILS (iv L1210 leukemia; 5.4 mg/kg): 67% | Increase in lifespan (ILS) (iv L1210 leukemia; 5.4 mg/kg): 93% | ILS (iv L1210 leukemia; 9 mg/kg): 83% | Increase in lifespan (ILS) (iv L1210 leukemia; 9 mg/kg): 136% | Increase in lifespan (ILS) (iv L1210 leukemia; 15 mg/kg): 171% | Long-Term Survivors (iv L1210 leukemia; 15 mg/kg): 1/6 | ILS (iv L1210 leukemia; 25 mg/kg): toxic | Increase in lifespan (ILS) (iv L1210 leukemia; 25 mg/kg): toxic | Increase in Lifespan (ILS) or Inhibition of Tumor Growth (TGI) (iv L1210 leukemia; iv): Curative | Long-Term Survivors (iv L1210 leukemia; iv, 1.3 mg/kg): 2/7 | Long-Term Survivors (iv L1210 leukemia; iv, 2.2 mg/kg): 1/7 | Long-Term Survivors (iv L1210 leukemia; iv, 3.6 mg/kg): 5/7 | Long-Term Survivors (iv L1210 leukemia; iv, 24 mg/kg): 4/7 | bioavailability upon oral administration (sc Lewis lung carcinoma): excellent bioavailability upon oral administration | Tumor growth inhibition (TGI) (sc Lewis lung carcinoma; 3.2 mg/kg): 31% | Mice without Palpable Tumors (sc Lewis lung carcinoma; 5.4 mg/kg, Acetate Salt): 2/8 and 4/8 | Tumor growth inhibition (TGI) (sc Lewis lung carcinoma; 5.4 mg/kg, Acetate Salt): 68% and 87% | Tumor growth inhibition (TGI) (sc Lewis lung carcinoma; 5.8 mg/kg): 51% | longterm, tumorfree survivors (sc Lewis lung carcinoma; 9 mg/kg): 2/8 | Tumor growth inhibition (TGI) (sc Lewis lung carcinoma; 9 mg/kg, Acetate Salt): 99% and 93% | Mice without Palpable Tumors (sc Lewis lung carcinoma; 9.7 mg/kg): 2/8 | Tumor growth inhibition (TGI) (sc Lewis lung carcinoma; 9.7 mg/kg): 89% | Tumor growth inhibition (TGI) (sc Lewis lung carcinoma; 15 mg/kg): 95% | longterm, tumorfree survivors (sc Lewis lung carcinoma; 15 mg/kg): 4 of 8 | Mice without Palpable Tumors (sc Lewis lung carcinoma; 15 mg/kg, Acetate Salt): 8/8 and 3/8 | Tumor growth inhibition (TGI) (sc Lewis lung carcinoma; 15 mg/kg, Acetate Salt): 100% | longterm, tumorfree survivors (sc Lewis lung carcinoma; 15 mg/kg, Acetate Salt): 4/8 | Mice without Palpable Tumors (sc Lewis lung carcinoma; 16 mg/kg): 1/8 | Tumor growth inhibition (TGI) (sc Lewis lung carcinoma; 16 mg/kg): 90% | Mice without Palpable Tumors (sc Lewis lung carcinoma; 25 mg/kg): 5/8 | Tumor growth inhibition (TGI) (sc Lewis lung carcinoma; 25 mg/kg): toxic | Mice without Palpable Tumors (sc Lewis lung carcinoma; 27 mg/kg): 4/8 | Tumor growth inhibition (TGI) (sc Lewis lung carcinoma; 45 mg/kg): toxic | Increase in Lifespan (ILS) or Inhibition of Tumor Growth (TGI) (sc Lewis lung carcinoma; sc): Curative | Tumor growth inhibition (TGI) ([2]; G/ip (Days 3, 10, 17 and 24), 3.1 mg/kg/injection): 34% | Tumor growth inhibition (TGI) ([2]; G/ip (Days 3, 10, 17 and 24), 5.2 mg/kg/injection): 36% | Tumor growth inhibition (TGI) ([2]; G/ip (Days 3, 10, 17 and 24), 8.6 mg/kg/injection): 53% | Tumor growth inhibition (TGI) ([2]; G/ip (Days 3, 10, 17 and 24), 14 mg/kg/injection): 76% | Tumor growth inhibition (TGI) ([2]; G/ip (Days 3, 10, 17 and 24), 24 mg/kg/injection): 88% | Mice without Palpable Tumors ([2]; G/ip, 8.6 mg/kg/injection): 1/8 | Mice without Palpable Tumors ([2]; G/ip, 14 mg/kg/injection): 1/8 | Mice without Palpable Tumors ([2]; G/ip, 24 mg/kg/injection): 3/8 | Tumor growth inhibition (TGI) ([2]; H/ip (every 3 hours x4 on Days 3, 10, 14 and 24), 0.47 mg/kg/injection): 37% | Tumor growth inhibition (TGI) ([2]; H/ip (every 3 hours x4 on Days 3, 10, 14 and 24), 0.78 mg/kg/injection): 73% | Tumor growth inhibition (TGI) ([2]; H/ip (every 3 hours x4 on Days 3, 10, 14 and 24), 1.3 mg/kg/injection): 88% | Tumor growth inhibition (TGI) ([2]; H/ip (every 3 hours x4 on Days 3, 10, 14 and 24), 2.2 mg/kg/injection): 89% | Tumor growth inhibition (TGI) ([2]; H/ip (every 3 hours x4 on Days 3, 10, 14 and 24), 3.6 mg/kg/injection): 92% | Mice without Palpable Tumors ([2]; H/ip, 0.78 mg/kg/injection): 1/8 | Mice without Palpable Tumors ([2]; H/ip, 1.3 mg/kg/injection): 3/8 | Mice without Palpable Tumors ([2]; H/ip, 2.2 mg/kg/injection): 4/8 | Mice without Palpable Tumors ([2]; H/ip, 3.6 mg/kg/injection): 4/8 | Increase in Lifespan (ILS) or Inhibition of Tumor Growth (TGI) ([2]; sc Colon Adenocarcinoma 51, optimal doses and optimal schedules): 92 % TGI | ILS (P388/Mitoxantrone; 3.2 mg/kg): 29% | NCK (net tumor cell kill) (P388/Mitoxantrone; 3.2 mg/kg): 0 log | ILS (P388/Mitoxantrone; 5.4 mg/kg): 57% | NCK (net tumor cell kill) (P388/Mitoxantrone; 5.4 mg/kg): 2.1 log | ILS (P388/Mitoxantrone; 9 mg/kg): 79% | NCK (net tumor cell kill) (P388/Mitoxantrone; 9 mg/kg): 3.6 log | NCK (net tumor cell kill) (P388/Mitoxantrone; 15 mg/kg): 5.7 log | ILS (P388/Mitoxantrone; 25 mg/kg): toxic | sensitivity / resistance of subline (P388/Mitoxantrone; P388/mitoxantrone in mice): retained sensitivity
